What follows are compounds tested on Nrf2 (Keap1-NRF2 nuclear translocation) (assay: U2OS translocation assay (PathHunter U2OS Keap1-NRF2 Nuclear Translocation Cell Line)). Conditions: Homo sapiens, U2OS, 3 h, read-out: CELLULAR U2OS EC50 (nM), U2OS Keap1-NRF2 nuclear translocation cells, 3 h incubation, luminescence, normalized between 1% DMSO and 10 μM andrographolide.
Format: cell-based
Description: EXAMPLE 84: U2OS—TRANSLOCATION ASSAY
U2OS cell have been stably transduced using MMLV-derived retroviral vector, to overexpress Nrf2-Enzyme Donor fusion protein, and Acceptor Enzyme in the nucleus (PathHunter® U2OS Keap1-NRF2 Nuclear Translocation Cell Line, Ref.93-0821C3, DiscoverX).
PathHunter U2OS cells were grown in Minimum Essential Medium (MEM) (Ref.30-2003, ATCC), 10% FBS (Ref.P30-193306, PanBiotech), 500 μg/ml Geneticine, 250 μg/ml hygromycine, 0.25 μg/ml puromycine (10131-027, 10687-010 and Ref.A1113802 respectively, Life Technologies).
The night before experiment, cells were harvested using Tryple Xpress (Ref.126905, Bibco) for 5 min at 37° C., resuspended in Opti-MEM™ (Ref.31985-047, Gibco), 1% FBS (Ref.P30-193306, PanBiotech) and then plated into 384 wells plates (Ref.6007680, Perkin Elmer) at the density of 7 500 cells/well in 20 μl. Cell are stored over night at 37° C., 5% CO2 until used. Compounds in 100% DMSO (0.315 μl/well) were resuspended in 20 μl MEM, 1% FBS, 3.4% DMSO. Compounds and andrographolide (10 μM final concentration; Ref.365645-500MG, Aldrich)) as positive control, were dispensed on cell, 5 μl /well, and then incubated for 3 h at 37° C. and 5% CO2. After incubation, Path hunter reagents were dispensed on cells (12 μl /well, Ref.93-0001, DiscoverX) and incubated for 60 min at room temperature in the dark.
Then, luminescence signal was measured using multimodal reader (Pherastar, BMG Labtech). Data were normalized between 1% DMSO (basal signal) and 10 μM andrographolide (positive signal) and analyzed using Activity Base software.

**Q.** `Cc1c2ccc3c1nnn3CCCCOc1ccc3c(c1)CN([C@H](C)c1cc(ccc1Cl)[C@H]2CC(=O)O)S(=O)(=O)O3` [Example 64b, [(2R,8R)-4-chloro-2,31-dimethyl-27,27-dioxo-21,26-dioxa-27λ^6-thia-1,14,15,16-tetraazahexacyclo[20.5.3.1^3,70.1^9,130.0^12,160.0^25,29]dotriaconta-3(32),4,6,9(31),10,12,14,22,24,29-decaen-8-yl]acetic acid] was tested. Which EC50 did it give?
**A.** Its EC50 is 231 nM.

**Q.** For `Cc1ccc2cc1CN1Cc3cc(ccc3OS1(=O)=O)OCCC(c1ccc(C(F)(F)F)cc1)Cn1nnc3c(C)c(ccc31)C2CC(=O)O` (centres unmarked) [Example 65, {4,31-Dimethyl-27,27-dioxo-18-[4-(trifluoromethyl)phenyl]-21,26-dioxa-27λ^6-thia-1,14,15,16-tetraazahexacyclo[20.5.3.1^3,70.1^9,130.0^12,160.0^25,29]dotriaconta-3(32),4,6,9(31),10,12,14,22,24,29-decaen-8-yl}acetic acid], which EC50 is on record?
**A.** Its EC50 is 699 nM.

**Q.** For `Cc1ccc2cc1CN1Cc3cc(ccc3OS1(=O)=O)OCCCCn1nnc3c(C)c(ccc31)[C@@H]2CC(=O)Nc1cncnc1` [Example 79a, 2-[(8R)-4,31-Dimethyl-27,27-dioxo-21,26-dioxa-27λ^6-thia-1,14,15,16-tetraazahexacyclo[20.5.3.1^3,70.1^9,130.0^12,160.0^25,29]dotriaconta-3(32),4,6,9(31),10,12,14,22,24,29-decaen-8-yl]-N-(pyrimidin-5-yl)acetamide], which EC50 is on record?
**A.** Its EC50 is 1120 nM.

**Q.** With `Cc1ccc2cc1CN1Cc3cc(ccc3OS1(=O)=O)OCc1ccccc1CCn1nnc3c(C)c(ccc31)C2CC(=O)O` (centres unmarked) [Example 62b, [4,36-Dimethyl-32,32-dioxo-26,31-dioxa-32λ^6-thia-1,14,15,16-tetraazaheptacyclo[25.5.3.1^3,70.1^9,130.0^12,160.0^19,240.0^30,34]heptatriaconta-3(37),4,6,9(36),10,12,14,19,21,23,27,29,34-tridecaen-8-yl]acetic acid] as the compound, how does the EC50 read?
**A.** Its EC50 is over 3160 nM.

**Q.** `Cc1ccc2cc1CN1Cc3cc(c(Cl)cc3OS1(=O)=O)OCCOCCn1nnc3c(C)c(ccc31)C2CC(=O)O` (centres unmarked) [Example 75, [24-Chloro-4,32-dimethyl-28,28-dioxo-19,22,27-trioxa-28λ^6-thia-1,14,15,16-tetraazahexacyclo[21.5.3.1^3,70.1^9,130.0^12,160.0^26,30]tritriaconta-3(33),4,6,9(32),10,12,14,23,25,30-decaen-8-yl]acetic acid] was tested. Which EC50 did it give?
**A.** Its EC50 is 59.6 nM.

**Q.** For `Cc1ccc2cc1CN1Cc3cc(ccc3OS1(=O)=O)OCCSCCn1nnc3c(C)c(ccc31)C2CC(=O)O` (centres unmarked) [Example 63b, [4,32-Dimethyl-28,28-dioxo-22,27-dioxa-19,28λ^6-dithia-1,14,15,16-tetraazahexacyclo[21.5.3.1^3,70.1^9,130.0^12,160.0^26,30]tritriaconta-3(33),4,6,9(32),10,12,14,23,25,30-decaen-8-yl]acetic acid], which EC50 is on record?
**A.** The EC50 was 1220 nM.

**Q.** Which EC50 does the source give for `Cc1ccc2cc1[C@@H](C)N1Cc3cc(ccc3OS1(=O)=O)OC[C@@H](O)CCn1nnc3c(C)c(ccc31)[C@H]2CC(=O)O` [Example 46a, [(2R,8RS,19S)-19-Hydroxy-2,4,31-trimethyl-27,27-dioxo-21,26-dioxa-27λ^6-thia-1,14,15,16-tetraazahexacyclo[20.5.3.1^3,70.1^9,130.0^12,160.0^25,29]dotriaconta-3(32),4,6,9(31),10,12,14,22,24,29-decaen-8-yl]acetic acid] here?
**A.** Its EC50 is 228 nM.

**Q.** `Cc1ccc2cc1[C@@H](C)N1Cc3cc(cc(C)c3OS1(=O)=O)OCCCCn1nnc3c(C)c(ccc31)[C@H]2CC(=O)O` [Example 29b, [(2R,8S)-2,4,24,31-tetramethyl-27,27-dioxo-21,26-dioxa-27λ^6-thia-1,14,15,16-tetraazahexacyclo[20.5.3.1^3,70.1^9,130.0^12,160.0^25,29]dotriaconta-3(32),4,6,9(31),10,12,14,22,24,29-decaen-8-yl]acetic acid] was tested. Which EC50 did it give?
**A.** Its EC50 is 68.4 nM.

**Q.** Which EC50 does the source give for `Cc1ccc2cc1CN1Cc3cc(ccc3OS1(=O)=O)Oc1ccccc1NCCCn1nnc3c(C)c(ccc31)C2CC(=O)O` (centres unmarked) [Example 71b, [4,37-Dimethyl-33,33-dioxo-27,32-dioxa-33λ^6-thia-1,14,15,16,20-pentaazaheptacyclo[26.5.3.1^3,70.1^9,130.0^12,160.0^21,260.0^31,35]octatriaconta-3(38),4,6,9(37),10,12,14,21,23,25,28,30,35-tridecaen-8-yl]acetic acid] here?
**A.** Its EC50 is 570 nM.

**Q.** Which EC50 does the source give for `Cc1ccc2cc1CN1Cc3cc(ccc3OS1(=O)=O)OCCCCn1nnc3c(C)c(ccc31)[C@H]2CC(=O)Nc1cccnc1` [Example 80a, 2-[(8S)-4,31-Dimethyl-27,27-dioxo-21,26-dioxa-27λ^6-thia-1,14,15,16-tetraazahexacyclo[20.5.3.1^3,70.1^9,130.0^12,160.0^25,29]dotriaconta-3(32),4,6,9(31),10,12,14,22,24,29-decaen-8-yl]-N-(pyridin-3-yl)acetamide] here?
**A.** Its EC50 is 596 nM.

Same assay, conditions: read-out: CELLULAR U2OS EC50; U2OS Keap1-NRF2 nuclear translocation cells, 3 h incubation, luminescence, normalized between 1% DMSO and 10 μM andrographolide

**Q.** With `Cc1ccc2cc1CN1Cc3cc(ccc3OS1(=O)=O)OCCOCCn1nnc3c(C)c(ccc31)C2CC(=O)O` (single isomer, unassigned) [Example 78a, [4,32-Dimethyl-28,28-dioxo-19,22,27-trioxa-28λ^6-thia-1,14,15,16-tetraazahexacyclo[21.5.3.1^3,70.1^9,130.0^12,160.0^26,30]tritriaconta-3(33),4,6,9(32),10,12,14,23,25,30-decaen-8-yl]acetic acid] as the compound, how does the EC50 read?
**A.** The EC50 was 69 nM.

**Q.** With `Cc1ccc2cc1CN1Cc3c(ccc(c3Cl)OCCOCCn3nnc4c(C)c(ccc43)C2CC(=O)O)OS1(=O)=O` (single isomer, unassigned) [Example 76a, [31-Chloro-4,32-dimethyl-28,28-dioxo-19,22,27-trioxa-28λ^6-thia-1,14,15,16-tetraazahexacyclo[21.5.3.1^3,70.1^9,130.0^12,160.0^26,30]tritriaconta-3(33),4,6,9(32),10,12,14,23,25,30-decaen-8-yl]acetic acid] as the compound, how does the EC50 read?
**A.** The EC50 was 7.5 nM.

**Q.** How did the EC50 turn out when `Cc1ccc2cc1CN1Cc3cc(ccc3OS1(=O)=O)OCc1ccccc1SCCCn1nnc3c(C)c(ccc31)C2CC(=O)O` (single isomer, unassigned) [Example 67a, [4,38-Dimethyl-34,34-dioxo-28,33-dioxa-20,34λ^6-dithia-1,14,15,16-tetraazaheptacyclo[27.5.3.1^3,70.1^9,130.0^12,160.0^21,260.0^32,36]nonatriaconta-3(39),4,6,9(38),10,12,14,21,23,25,29,31,36-tridecaen-8-yl]acetic acid] was run?
**A.** Its EC50 is 554 nM.

**Q.** With `Cc1ccc2cc1CN1Cc3cc(ccc3OS1(=O)=O)OCCn1nnc3c(C)c(ccc31)C2CC(=O)O` (centres unmarked) [Example 77b, [4,29-Dimethyl-25,25-dioxo-19,24-dioxa-25λ^6-thia-1,14,15,16-tetraazahexacyclo[18.5.3.1^3,70.1^9,130.0^12,160.0^23,27]triaconta-3(30),4,6,9(29),10,12,14,20,22,27-decaen-8-yl]acetic acid] as the compound, how does the EC50 read?
**A.** The EC50 was over 3160 nM.

**Q.** For `Cc1ccc2cc1CN1Cc3cc(ccc3OS1(=O)=O)Oc1ccccc1NCCn1nnc3c(C)c(ccc31)C2CC(=O)O` (single isomer, unassigned) [Example 70a, [4,36-Dimethyl-32,32-dioxo-26,31-dioxa-32λ^6-thia-1,14,15,16,19-pentaazaheptacyclo[25.5.3.1^3,70.1^9,130.0^12,160.0^20,250.0^30,34]heptatriaconta-3(37),4,6,9(36),10,12,14,20,22,24,27,29,34-tridecaen-8-yl]acetic acid], which EC50 is on record?
**A.** The EC50 was 306 nM.

**Q.** `Cc1ccc2cc1CN1Cc3cc(ccc3OS1(=O)=O)OCc1ccccc1/C=C/n1nnc3c(C)c(ccc31)C2CC(=O)O` (single isomer, unassigned) [Example 61b, [(17E)-4,36-dimethyl-32,32-dioxo-26,31-dioxa-32λ^6-thia-1,14,15,16-tetraazaheptacyclo[25.5.3.1^3,70.1^9,130.0^12,160.0^19,240.0^30,34]heptatriaconta-3(37),4,6,9(36),10,12,14,17,19,21,23,27,29,34-tetradecaen-8-yl]acetic acid] was tested. Which EC50 did it give?
**A.** Its EC50 is over 3160 nM.

**Q.** How did the EC50 turn out when `Cc1ccc2cc1CN1Cc3cc(ccc3OS1(=O)=O)OCCCCn1nnc3c(C)c(ccc31)C2C(C)(C)C(=O)Nc1cccnc1` (single isomer, unassigned) [Example 82b, 2-[4,31-Dimethyl-27,27-dioxo-21,26-dioxa-27λ^6-thia-1,14,15,16-tetraazahexacyclo[20.5.3.1^3,70.1^9,130.0^12,160.0^25,29]dotriaconta-3(32),4,6,9(31),10,12,14,22,24,29-decaen-8-yl]-2-methyl-N-(pyridin-3-yl)propanamide] was run?
**A.** Its EC50 is over 3160 nM.

— patent US12643912B2, “Macrocyclic compounds, a process for their preparation and pharmaceutical compositions containing them” (LES LABORATOIRES SERVIER, priority 2020, dated 2026)
